# In article PMC6152318 (Molecules : A Journal of Synthetic Chemistry and Natural …, 2017):
# Assays:
# [1] = Flavonoid fluorescence in buffer solution without HSA
# HSA [2] = settings: of its intensity without warfarin; cited from earlier work
# [3] = molecular target: Human serum albumin (HSA) IIA binding site (Homo sapiens, UniProt P02768); assay: Flavonoid fluorescence (excitation 450 nm) on HSA pre-saturated with warfarin (simultaneous binding / displacement)
# Procedure: HSA was freshly dissolved in Dulbecco’s phosphate-buffered saline pH 7.4 (137 mM sodium chloride, 2.7 mM potassium chloride, 8.1 mM disodium hydrogen phosphate, 1.47 mM potassium dihydrogen phosphate) immediately before measurements. […]. In all experiments, the final co-solvent concentration was held below 5%. This was done to prevent conformational changes of HSA due to changes in dielectric constant of the solvent.
# Steady-state fluorescence was recorded using a thermostated Safas Xenius fluorometer (Safas Monaco, Monaco) with an integrated stirrer. All studies were performed at 25 ± 1 °C using 10 nm excitation and emission slit widths. […] Higher concentrations of HSA and ligands were not used due to poor solubility of ligands and high influence of ligand absorption. Measurements were performed in duplicate.
# [4] = molecular target: T1, Human serum albumin (HSA) (Homo sapiens, UniProt P02768); assay: Binding constants by quenching of HSA tryptophan fluorescence; settings: for K ± S.D. (binding constant): 6 μM HSA, pH 7.4, 25 °C, excitation 295 nm, 1:1 binding model
# T1 construct: Fatty acid free HSA and warfarin sodium were purchased from Sigma-Aldrich; purchased Sigma-Aldrich (St. Louis, MO, USA)
# Procedure: In all experiments, the final co-solvent concentration was held below 5%. This was done to prevent conformational changes of HSA due to changes in dielectric constant of the solvent.
# Steady-state fluorescence was recorded using a thermostated Safas Xenius fluorometer (Safas Monaco, Monaco) with an integrated stirrer. All studies were performed at 25 ± 1 °C using 10 nm excitation and emission slit widths. […] Measurements were performed in duplicate.
# A stock solution of a single ligand was gradually added via syringe to a 2 mL of a 6 μM HSA solution placed in a quartz cell. Measurements were conducted at the excitation wavelength of 295 nm and emission was recorded in the 310–400 nm range enabling calculations of corresponding binding constants. […] Binding constants were determined according to Dufour and Dangles. A Scatchard analysis was performed assuming n identical binding sites on HSA. Values for binding constant (K), molar fluorescence intensity of the complex (f), and the stoichiometric coefficient (n) were estimated by fitting the F vs. Lt curves against Equations (1) and (2) using a least-square regression program Scientist (MicroMath, Salt Lake City, UT, USA), where F is fluorescence intensity, [L] the free ligand concentration, [Lt] the total ligand concentration, and c the total albumin concentration. […] In all cases, the inner filter effect was taken into account by using absorption of free ligands at excitation and emission wavelengths (εex and εem, respectively) (Equation (3)), where Fcorr is the fluorescence corrected for the inner filter effect, F0 is the measured fluorescence, ε is the sum of εex and εem, l = 0.65 is the optical path and c is the flavonoid concentration. (1) Fcorr=fcnK[L]/1+K[L] (2) [Lt]=[L](1+ncK/1+K[L]) (3) F0=Fcorr×10^−εlc
# HSA [5] = settings: cited from earlier work
# [6] = HSA 0-92% saturated with warfarin
# T1 sequence (P02768 25-609): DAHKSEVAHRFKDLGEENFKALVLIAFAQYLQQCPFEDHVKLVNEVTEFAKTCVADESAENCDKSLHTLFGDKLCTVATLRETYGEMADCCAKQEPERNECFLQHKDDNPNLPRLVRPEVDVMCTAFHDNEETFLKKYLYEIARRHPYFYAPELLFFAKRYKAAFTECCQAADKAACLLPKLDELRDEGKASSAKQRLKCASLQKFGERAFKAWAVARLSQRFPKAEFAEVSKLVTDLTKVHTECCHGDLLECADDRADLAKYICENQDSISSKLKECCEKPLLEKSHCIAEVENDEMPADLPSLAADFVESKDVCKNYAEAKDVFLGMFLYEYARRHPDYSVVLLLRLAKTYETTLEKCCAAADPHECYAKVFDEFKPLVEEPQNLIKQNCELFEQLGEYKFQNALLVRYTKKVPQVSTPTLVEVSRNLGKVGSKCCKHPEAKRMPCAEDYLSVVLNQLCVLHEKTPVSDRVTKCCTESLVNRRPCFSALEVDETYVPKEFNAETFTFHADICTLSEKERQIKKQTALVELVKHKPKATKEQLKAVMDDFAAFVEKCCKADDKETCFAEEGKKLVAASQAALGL
# Human serum albumin (HSA) IIA binding site, sequence (P02768 25-609): as above
smiles,measurement,setting,value
O=c1c(O)c(-c2ccc(O)c(O)c2)oc2cc(O)cc(O)c12 [Quercetin],Absolute fluorescence intensity,"[1]; flavonoid 2,00 uM","0,8077"
same,Absolute fluorescence intensity,"[1]; flavonoid 4,00 uM","0,9540"
same,Absolute fluorescence intensity,"[1]; flavonoid 7,99 uM","1,1279"
same,Absolute fluorescence intensity,"[1]; flavonoid 15,97 uM","1,3080"
same,Absolute fluorescence intensity,"[1]; flavonoid 31,87 uM","1,5574"
same,Absolute fluorescence intensity,"[1]; flavonoid 47,71 uM","1,7477"
same,Absolute fluorescence intensity,"[1]; flavonoid 63,49 uM","2,0820"
same,Absolute fluorescence intensity,"[1]; flavonoid 79,21 uM","2,2472"
same,Absolute fluorescence intensity,"[1]; flavonoid 98,77 uM","2,4600"
same,Relative STD-NMR signal intensity in presence of warfarin,HSA [2],~ 40%
same,Effect of warfarin on flavonoid Fmax (maximum fluorescence),[3]; [6],slightly decreased
same,Effect of warfarin on flavonoid cmax (concentration needed to achieve Fmax),[3]; [6],slight increase
same,Absolute fluorescence intensity,"[3]; flavonoid 2,00 uM, 0% occupied HSA","14,1006"
same,Absolute fluorescence intensity,"[3]; flavonoid 2,00 uM, 22% occupied HSA","14,3985"
same,Absolute fluorescence intensity,"[3]; flavonoid 2,00 uM, 38% occupied HSA","15,6001"
same,Absolute fluorescence intensity,"[3]; flavonoid 2,00 uM, 63% occupied HSA","14,9774"
same,Absolute fluorescence intensity,"[3]; flavonoid 2,00 uM, 92% occupied HSA","12,2760"
same,Absolute fluorescence intensity,"[3]; flavonoid 4,00 uM, 0% occupied HSA","18,1924"
same,Absolute fluorescence intensity,"[3]; flavonoid 4,00 uM, 22% occupied HSA","19,1798"
same,Absolute fluorescence intensity,"[3]; flavonoid 4,00 uM, 38% occupied HSA","20,1073"
same,Absolute fluorescence intensity,"[3]; flavonoid 4,00 uM, 63% occupied HSA","20,0687"
same,Absolute fluorescence intensity,"[3]; flavonoid 4,00 uM, 92% occupied HSA","16,0796"
same,Absolute fluorescence intensity,"[3]; flavonoid 6,00 uM, 0% occupied HSA","21,7864"
same,Absolute fluorescence intensity,"[3]; flavonoid 6,00 uM, 22% occupied HSA","22,8342"
same,Absolute fluorescence intensity,"[3]; flavonoid 6,00 uM, 38% occupied HSA","23,2658"
same,Absolute fluorescence intensity,"[3]; flavonoid 6,00 uM, 63% occupied HSA","23,0451"
same,Absolute fluorescence intensity,"[3]; flavonoid 6,00 uM, 92% occupied HSA","18,9492"
same,Absolute fluorescence intensity,"[3]; flavonoid 7,99 uM, 0% occupied HSA","25,2012"
same,Absolute fluorescence intensity,"[3]; flavonoid 7,99 uM, 22% occupied HSA","26,8970"
same,Absolute fluorescence intensity,"[3]; flavonoid 7,99 uM, 38% occupied HSA","26,0412"
same,Absolute fluorescence intensity,"[3]; flavonoid 7,99 uM, 63% occupied HSA","25,4057"
same,Absolute fluorescence intensity,"[3]; flavonoid 7,99 uM, 92% occupied HSA","21,2821"
same,Absolute fluorescence intensity,"[3]; flavonoid 11,98 uM, 0% occupied HSA","30,3340"
same,Absolute fluorescence intensity,"[3]; flavonoid 11,98 uM, 22% occupied HSA","31,0510"
same,Absolute fluorescence intensity,"[3]; flavonoid 11,98 uM, 38% occupied HSA","30,0611"
same,Absolute fluorescence intensity,"[3]; flavonoid 11,98 uM, 63% occupied HSA","29,3172"
same,Absolute fluorescence intensity,"[3]; flavonoid 11,98 uM, 92% occupied HSA","25,1156"
same,Absolute fluorescence intensity,"[3]; flavonoid 15,97 uM, 0% occupied HSA","33,9655"
same,Absolute fluorescence intensity,"[3]; flavonoid 15,97 uM, 22% occupied HSA","33,9646"
same,Absolute fluorescence intensity,"[3]; flavonoid 15,97 uM, 38% occupied HSA","33,4123"
same,Absolute fluorescence intensity,"[3]; flavonoid 15,97 uM, 63% occupied HSA","32,2916"
same,Absolute fluorescence intensity,"[3]; flavonoid 15,97 uM, 92% occupied HSA","28,2109"
same,Absolute fluorescence intensity,"[3]; flavonoid 23,93 uM, 0% occupied HSA","38,4893"
same,Absolute fluorescence intensity,"[3]; flavonoid 23,93 uM, 22% occupied HSA","37,6942"
same,Absolute fluorescence intensity,"[3]; flavonoid 23,93 uM, 38% occupied HSA","37,3757"
same,Absolute fluorescence intensity,"[3]; flavonoid 23,93 uM, 63% occupied HSA","36,2415"
same,Absolute fluorescence intensity,"[3]; flavonoid 23,93 uM, 92% occupied HSA","32,2392"
same,Absolute fluorescence intensity,"[3]; flavonoid 31,87 uM, 0% occupied HSA","40,5581"
same,Absolute fluorescence intensity,"[3]; flavonoid 31,87 uM, 22% occupied HSA","39,7022"
same,Absolute fluorescence intensity,"[3]; flavonoid 31,87 uM, 38% occupied HSA","39,4192"
same,Absolute fluorescence intensity,"[3]; flavonoid 31,87 uM, 63% occupied HSA","37,9878"
same,Absolute fluorescence intensity,"[3]; flavonoid 31,87 uM, 92% occupied HSA","34,7552"
same,Absolute fluorescence intensity,"[3]; flavonoid 39,80 uM, 0% occupied HSA","41,9281"
same,Absolute fluorescence intensity,"[3]; flavonoid 39,80 uM, 22% occupied HSA","41,0854"
same,Absolute fluorescence intensity,"[3]; flavonoid 39,80 uM, 38% occupied HSA","41,0246"
same,Absolute fluorescence intensity,"[3]; flavonoid 39,80 uM, 63% occupied HSA","39,4685"
same,Absolute fluorescence intensity,"[3]; flavonoid 39,80 uM, 92% occupied HSA","36,6753"
same,Absolute fluorescence intensity,"[3]; flavonoid 47,71 uM, 0% occupied HSA","41,6617"
same,Absolute fluorescence intensity,"[3]; flavonoid 47,71 uM, 22% occupied HSA","41,5821"
same,Absolute fluorescence intensity,"[3]; flavonoid 47,71 uM, 38% occupied HSA","41,3733"
same,Absolute fluorescence intensity,"[3]; flavonoid 47,71 uM, 63% occupied HSA","40,4449"
same,Absolute fluorescence intensity,"[3]; flavonoid 47,71 uM, 92% occupied HSA","37,3158"
same,Absolute fluorescence intensity,"[3]; flavonoid 63,49 uM, 0% occupied HSA","40,9892"
same,Absolute fluorescence intensity,"[3]; flavonoid 63,49 uM, 22% occupied HSA","40,4660"
same,Absolute fluorescence intensity,"[3]; flavonoid 63,49 uM, 38% occupied HSA","40,7086"
same,Absolute fluorescence intensity,"[3]; flavonoid 63,49 uM, 63% occupied HSA","39,7702"
same,Absolute fluorescence intensity,"[3]; flavonoid 63,49 uM, 92% occupied HSA","38,0617"
same,Absolute fluorescence intensity,"[3]; flavonoid 79,21 uM, 0% occupied HSA","39,3310"
same,Absolute fluorescence intensity,"[3]; flavonoid 79,21 uM, 22% occupied HSA","39,3997"
same,Absolute fluorescence intensity,"[3]; flavonoid 79,21 uM, 38% occupied HSA","39,3849"
same,Absolute fluorescence intensity,"[3]; flavonoid 79,21 uM, 63% occupied HSA","38,8686"
same,Absolute fluorescence intensity,"[3]; flavonoid 79,21 uM, 92% occupied HSA","37,3045"
same,Absolute fluorescence intensity,"[3]; flavonoid 98,77 uM, 0% occupied HSA","37,4633"
same,Absolute fluorescence intensity,"[3]; flavonoid 98,77 uM, 22% occupied HSA","37,3641"
same,Absolute fluorescence intensity,"[3]; flavonoid 98,77 uM, 38% occupied HSA","37,6865"
same,Absolute fluorescence intensity,"[3]; flavonoid 98,77 uM, 63% occupied HSA","37,3324"
same,Absolute fluorescence intensity,"[3]; flavonoid 98,77 uM, 92% occupied HSA","36,3823"
same,Kd,[4],6.94 µM
O=c1c(O[C@@H]2O[C@H](CO)[C@@H](O)[C@H](O)[C@H]2O)c(-c2ccc(O)c(O)c2)oc2cc(O)cc(O)c12 [Isoquercitrin],Kd,[4],22.4 µM
C[C@@H]1O[C@@H](OC[C@H]2O[C@@H](Oc3c(-c4ccc(O)c(O)c4)oc4cc(O)cc(O)c4c3=O)[C@H](O)[C@@H](O)[C@@H]2O)[C@H](O)[C@H](O)[C@H]1O [Rutin],Kd,[4],34.2 µM
O=C(O)[C@H]1O[C@@H](Oc2c(-c3ccc(O)c(O)c3)oc3cc(O)cc(O)c3c2=O)[C@H](O)[C@@H](O)[C@@H]1O,K ± S.D. (binding constant),[4],5.36 ± 0.13 × 10^4 M^−1
O=c1cc(-c2ccc(O)c(O)c2)oc2cc(O)c([C@@H]3O[C@H](CO)[C@@H](O)[C@H](O)[C@H]3O)c(O)c12 [Isoorientin],Kd,[4],21.9 µM
O=c1c(O[C@@H]2O[C@H](CO)[C@H](O)[C@H](O)[C@H]2O)c(-c2ccc(O)c(O)c2)oc2cc(O)cc(O)c12 [Hyperoside],Kd,[4],30.9 µM
CC(=O)CC(c1ccccc1)c1c(O)c2ccccc2oc1=O (stereo not shown) [Warfarin],Fraction of warfarin in blood bound to HSA,HSA [5],> 99%
O=c1cc(-c2ccc(O)c(O)c2)oc2cc(O[C@@H]3O[C@H](CO)[C@@H](O)[C@H](O)[C@H]3O)cc(O)c12 [Cynaroside],K ± S.D. (binding constant),[4],4.20 ± 0.25 × 10^4 M^−1
